According to patent publication US8937183B2, “Detection of hydrogen peroxide” (Promega Corporation, priority 2011, dated 2015):

Tests used:
[1] = Light generation from compounds following incubation with hydrogen peroxide in different pH solutions (D-cysteine conversion, LDR); type: biochemical; details: for Signal to Background Ratios: signal with peroxide to background no peroxide
Experimental: In this experiment, various compounds were tested for their ability to detect hydrogen peroxide in different pH solutions. Several compounds are shown to give much better signal strength and signal to background ratios than PBI 3048 (Example 23). 4 mg/ml solutions of compounds PBI 4480, 4481, 4452, 4470, 4472, 3048 (FIGS. 1 and 2) were made by dissolving them in DMSO (Fluka 41641). 30 μl of the compound solutions was diluted to 1.5 ml with Nanopure water, and 50 μl aliquots added as follows into a white, 96-well luminometer plate: PBI 4481, row A1-12; PBI 4480, row B1-12; PBI 4452, row C1-12; PBI 3048, row D1-12; PBI 4472, row E1-12 and PBI 4470, row F1-12.
25 μl of 200 mM TRIS buffer, pH 7.6 was added to wells A1-F4, 25 μl of 200 mM TRIS buffer, pH 8.8 was added to wells A5-F8, and 25 μl of 200 mM Tris buffer, pH 10.4 was added […].
30% hydrogen peroxide (Sigma H 1009-5 ml) was diluted to 40 μM in Nanopure water, and 25 μl added to columns 3, 4, 7, 8, 11 and 12 of the plate. 25 μl water was added to columns 1, 2, 5, 6, 9, and 10 of the plate, and the plate incubated at room temperature for 60 minutes.
A conversion solution was made by mixing 100 μl of 100 mM D-cysteine, 1 ml Tris Buffer pH 8.8 and 8.9 ml nanopure water. After mixing, 80 μl of the solution was added to wells A1-F12 of a new luminometer plate.
After incubation, 20 μl of sample from wells A1-F12 of the first plate was transferred to the same well in the new luminometer plate. The new plate was incubated at room temperature for 5 minutes, 100 μl of LDR (Example 23) was added to wells A1-F12, and bioluminescence detected on a Glo Max® luminometer (Promega).
The RLUs for the duplicate wells were averaged. The averages for the wells containing hydrogen peroxide were compared to the wells without hydrogen peroxide at the same pH (Table 2). BZT is used to designate benzothiazole derivatives of the compounds.
The Signal to Background (S/B) ratio is used to compare assay reagents with very difference signal strengths. An assay with a higher S/B ratio is often considered a better assay than one with a smaller S/B ratio (with all other factors being relatively equal).

[2] = Signal strength differences due to reaction pH and buffer composition (hydrogen peroxide, D-cysteine conversion, LDR); type: biochemical; details: for Net Average Signals at 15 Minutes / Net Average Signals at 60 Minutes / Net Average Signals at 105 Minutes: 100 μl of 10 μM H2O2 added
Experimental: A 30 μl sample of 4 mg/ml PBI 4458 in DMSO was diluted to 1.5 ml with Nanopure water, and 50 μl added to wells A1-12 and E1-12 of a microtiter plate. A 30 μl sample of 4 mg/ml PBI 4472 in DMSO was diluted to 1.5 ml with Nanopure, and 50 μl added to wells B1-12 and F1-12 of the plate. A 30 μl sample of 4 mg/ml PBI 4480 in DMSO was diluted to 1.5 ml with Nanopure water, and 50 μl added to wells C1-12 and G1-12 of the plate. A 30 μl sample of 4 mg/ml PBI 4481 in DMSO was diluted to 1.5 ml with Nanopure water, and 50 μl added to wells D1-12 and H1-12 of the plate. To the plate, a 50 μl sample of 200 mM KHPO4, pH 7.4 was added to wells A1-D4; 50 μl 200 mM Tris buffer, pH 7.4 was added to wells A5-D8; 50 μl 250 mM HEPES buffer, pH 7.5 was added to wells A9-D12; 50 μl 200 mM KHPO4 buffer, pH 9.2 was added to wells E1-H4; 50 μl 250 mM Tris buffer, pH 10.4 was added to wells E5-H8; and 50 μl 100 mM CAPS buffer, pH 10.4 was added to wells E9-H12.
A sample of hydrogen peroxide (30%, Sigma, H1009-5 ml) was diluted to 10 μM with Nanopure water, and 100 μl added to columns 3, 4, 7, 8, 11, 12 wells A-H of the plate. 100 μl Nanopure water was added to columns 1, 2, 5, 6, 9 and 10 of the plate. The plate was incubated at room temperature for 15 minutes.
A conversion solution was made by mixing 5 ml of 1 M HEPES buffer, pH 7.5, 4.9 ml of Nanopure water and 100 μl of 100 mM D-cysteine (in Nanopure water), and […] added to all wells of a luminometer plate.
After incubation, 25 μl of sample from all wells in the plate was transferred and mixed into the corresponding wells in the luminometer plate, incubated 2-3 minutes at room temperature, and 50 μl LDR (Example 23) added. The luminometer plate was incubated for 15 minutes at room temperature, and bioluminescence detected on a GloMax® luminometer.
Additional samples were taken at 60 and 105 minutes and added to a fresh luminometer plates containing 25 μl of conversion solution in all wells. The plates were then incubated for 15 minutes at room temperature, and bioluminescence detected as previously described.

In the case of `CC1(C)OB(c2ccc(COc3ccc4nc(C#N)sc4c3)cc2)OC1(C)C` [PBI 4472, 6-((4-(4,4,5,5-tetramethyl-1,3,2-dioxaborolan-2-yl)benzyl)oxy)benzo-[d]thiazole-2-carbonitrile], the “Signal to Background Ratios” value ([1]; pH 7.6) is reported as 18.0, the “averaged RLUs (bioluminescence)” value ([1]; pH 7.6 TRIS buffer, No H2O2, 60 minutes) is reported as 102,925 RLU and the “averaged RLUs (bioluminescence)” value ([1]; pH 7.6 TRIS buffer, With H2O2 (25 μl of 40 μM added), 60 minutes) is reported as 1,854,434 RLU. The “Signal to Background Ratios” value ([1]; pH 8.8) was 31.6, the “averaged RLUs (bioluminescence)” value ([1]; pH 8.8 TRIS buffer, No H2O2, 60 minutes) was 163,710 RLU and the “averaged RLUs (bioluminescence)” value ([1]; pH 8.8 TRIS buffer, With H2O2 (25 μl of 40 μM added), 60 minutes) was 5,175,361 RLU. For the same compound, the “Signal to Background Ratios” value ([1]; pH 10.4) was 24.1, the “averaged RLUs (bioluminescence)” value ([1]; pH 10.4 Tris buffer, No H2O2, 60 minutes) was 337,921 RLU and the “averaged RLUs (bioluminescence)” value ([1]; pH 10.4 Tris buffer, With H2O2 (25 μl of 40 μM added), 60 minutes) was 8,159,216 RLU. The “Signal to Background Ratios at 15 Minutes” value ([2]; CAPS pH 10.4, 15 minutes) was 17.0, the “Net Average Signals at 15 Minutes” value ([2]; CAPS pH 10.4, 15 minutes) was 3,154,440 RLU and the “Signal to Background Ratios at 60 Minutes” value ([2]; CAPS pH 10.4, 60 minutes) was 15.4. For the same compound, the “Net Average Signals at 60 Minutes” value ([2]; CAPS pH 10.4, 60 minutes) was 5,425,701 RLU, the “Signal to Background Ratios at 105 Minutes” value ([2]; CAPS pH 10.4, 105 minutes) was 11.3 and the “Net Average Signals at 105 Minutes” value ([2]; CAPS pH 10.4, 105 minutes) was 7,554,957 RLU. For the same compound, the “Signal to Background Ratios at 15 Minutes” value ([2]; HEPES pH 7.5, 15 minutes) was 3.9, the “Net Average Signals at 15 Minutes” value ([2]; HEPES pH 7.5, 15 minutes) was 58,399 RLU and the “Signal to Background Ratios at 60 Minutes” value ([2]; HEPES pH 7.5, 60 minutes) was 8.0. The “Net Average Signals at 60 Minutes” value ([2]; HEPES pH 7.5, 60 minutes) was 159,982 RLU, the “Signal to Background Ratios at 105 Minutes” value ([2]; HEPES pH 7.5, 105 minutes) was 8.2 and the “Net Average Signals at 105 Minutes” value ([2]; HEPES pH 7.5, 105 minutes) was 259,725 RLU. For the same compound, the “Net Average Signals at 15 Minutes” value ([2]; KPO4 Ph 7.4, 15 minutes) was 43,867 RLU, the “Signal to Background Ratios at 15 Minutes” value ([2]; KPO4 pH 7.4, 15 minutes) was 3.1 and the “Signal to Background Ratios at 60 Minutes” value ([2]; KPO4 pH 7.4, 60 minutes) was 4.9. For the same compound, the “Net Average Signals at 60 Minutes” value ([2]; KPO4 pH 7.4, 60 minutes) was 102,614 RLU, the “Signal to Background Ratios at 105 Minutes” value ([2]; KPO4 pH 7.4, 105 minutes) was 5.3 and the “Net Average Signals at 105 Minutes” value ([2]; KPO4 pH 7.4, 105 minutes) was 168,787 RLU. The “Signal to Background Ratios at 15 Minutes” value ([2]; KPO4 pH 9.2, 15 minutes) was 11.0, the “Net Average Signals at 15 Minutes” value ([2]; KPO4 pH 9.2, 15 minutes) was 400,087 RLU and the “Signal to Background Ratios at 60 Minutes” value ([2]; KPO4 pH 9.2, 60 minutes) was 14.7. For the same compound, the “Net Average Signals at 60 Minutes” value ([2]; KPO4 pH 9.2, 60 minutes) was 781,296 RLU, the “Signal to Background Ratios at 105 Minutes” value ([2]; KPO4 pH 9.2, 105 minutes) was 14.6 and the “Net Average Signals at 105 Minutes” value ([2]; KPO4 pH 9.2, 105 minutes) was 1,380,626 RLU. For the same compound, the “Signal to Background Ratios at 15 Minutes” value ([2]; TRIS pH 10.4, 15 minutes) was 32.9, the “Net Average Signals at 15 Minutes” value ([2]; TRIS pH 10.4, 15 minutes) was 1,530,303 RLU and the “Signal to Background Ratios at 60 Minutes” value ([2]; TRIS pH 10.4, 60 minutes) was 34.2. The “Net Average Signals at 60 Minutes” value ([2]; TRIS pH 10.4, 60 minutes) was 3,777,236 RLU, the “Signal to Background Ratios at 105 Minutes” value ([2]; TRIS pH 10.4, 105 minutes) was 26.5 and the “Net Average Signals at 105 Minutes” value ([2]; TRIS pH 10.4, 105 minutes) was 6,279,007 RLU. The “Signal to Background Ratios at 15 Minutes” value ([2]; Tris pH 7.4, 15 minutes) was 6.6, the “Net Average Signals at 15 Minutes” value ([2]; Tris pH 7.4, 15 minutes) was 121,480 RLU and the “Signal to Background Ratios at 60 Minutes” value ([2]; Tris pH 7.4, 60 minutes) was 13.2. The “Net Average Signals at 60 Minutes” value ([2]; Tris pH 7.4, 60 minutes) was 371,397 RLU, the “Signal to Background Ratios at 105 Minutes” value ([2]; Tris pH 7.4, 105 minutes) was 13.6 and the “Net Average Signals at 105 Minutes” value ([2]; Tris pH 7.4, 105 minutes) was 658,967 RLU.
